The nature of data set [1]: clinical. Particulars: human, in vivo, po, Median t max (range). The source says: The first trial was a nonrandomized, open-label, one-period design. The second trial was a randomized, open-label, three-arm, three-period design (Fig 1). With respect to inclusion criteria, the studies included healthy Japanese adults between 20 and 45 years of age with a body mass index between 18 and 25 who were willing and able to comply with the study requirements. Exclusion criteria for this study included a history of significant liver, heart, or vessel disease and consumption of supplements that contained any rikkunshito ingredients or any drug within 3 days to 1 week before the first dose. Other standard exclusion criteria included relevant allergies, pregnant or nursing females, and any alcohol or nicotine use. The sample size was set as more than 15 based on the Ministry of Health, Labour and Welfare’s guidelines. Subjects allocated to a screening test were randomized to one of three groups by the central allocation system (allocation ratio 1:1:1). A random sequence was generated using a computer. The safety endpoint was evaluated in all volunteers. This endpoint was defined on the basis of a physician’s judgement after examination or observation that a serious adverse event had occurred. Adverse events included death, a life-threatening event, an event requiring hospitalization for treatment or an extended stay in hospital, an event resulting in permanent or temporary disability or dysfunction, an event resulting in a congenital abnormality, or any other serious medical phenomenon. With respect to side effects, no specific conditions were defined, and all adverse events for which no causal relationship with the drug could be excluded were deemed to be side effects. In each stage during the 48-h period following rikkunshito administration, the physician monitored the patient for subjective symptoms, objective findings, swelling, body temperature (axillary), blood pressure (sitting), and pulse (sitting). The physician also conducted a hematological examination to measure the patient’s red blood cell, leucocyte and platelet counts, hemoglobin level, and hematocrit value. A biochemical examination was conducted to determine total protein, blood urea nitrogen, creatinine, uric acid, aspartate aminotransferase, alanine aminotransferase, total bilirubin, alkaline phosphatase, γ-glutamyltranspeptidase albumin, prothrombin time, total cholesterol, C-reactive protein, and potassium to identify any abnormalities in comparison with the subject’s condition prior to administration. All participants fasted for 12 h before administration and 4 h after administration of the study drug.
In the second quantitative trial, 12-mL blood samples were collected at 0 (preadministration), 0.25, 0.5, 1, 2, 3, 4, 6, 8, 10, 12, 24, and 48 h after a single oral administration of rikkunshito (Lot H05142). A total of 3 daily doses were used in this trial, i.e., the clinical dose per administration (2.5 g) as the lowest dose, the clinical daily dose (7.5 g) as the highest dose, and an intermediate dose (5.0 g), to broadly discuss the pharmacokinetic characteristics of the ingredients measured. The trial participants were hospitalized overnight on the day they ingested rikkunshito, and returned home the following day after blood samples were collected at the 24-h time point. The participants returned to the hospital to provide blood samples at 48 h. The blood was immediately centrifuged at 1700 ×g for 15 min to obtain plasma. Plasma fractions were stored at −20°C or lower until analysis.
Plasma, urine, and rikkunshito formulation samples were analyzed for rikkunshito ingredients concentrations using a liquid chromatography–mass spectrometry with tandem mass spectrometer assay (LC–MS/MS; API5000, Triple Quad 6500, or QTRAP5500; AB Sciex, Tokyo, Japan) or gas chromatography–mass spectrometry. Further information of analytical methods can be found at S1 Appendix.

Data set [2] in a line: Method validation: stability in blood. As to conditions: 4 pg/mL.
A short description of data set [3]: Method validation: long-term stability in plasma. As to conditions: 160 pg/mL.
The nature of data set [4]: Method validation: freeze-thaw stability in plasma. Particulars: 160 pg/mL, deep freezer (−30°C to −10°C), after 3 cycles of freeze-thaw.
Data set [5] is described as follows: Method validation: post-preparative stability (autosampler).
A short description of data set [6]: Method validation: stability in standard, stock and working solution. Particulars: 0.1 mg/mL.
A short description of data set [7]: Exploratory trial: plasma concentration of rikkunshito ingredients after single oral rikkunshito 7.5 g. The class given is in vivo. As to conditions: mean ± S.D., n = 4. As to the method: A random sequence was generated using a computer. The safety endpoint was evaluated in all volunteers.
(§1) In the first exploratory trial, 20-mL blood samples were collected from the cutaneous vein in the subjects’ forearm via a blood sampling tube that contained heparin at 0 (preadministration), 0.5, 1, 2, 4, and 8 h after a single oral administration of rikkunshito (Lot E24652). The dose of rikkunshito used in this trial was 7.5 g/day, which is the clinical daily dose, to widely explore rikkunshito-derived ingredients that enter the blood. Along with plasma, urine samples were collected at three points: between dinner and bedtime (preadministration), between 0 and 4 h after administration, and between 4 and 8 h after administration. The blood was immediately centrifuged at 1700 ×g for 10 min to obtain plasma. Plasma and urine fractions were stored at −80°C or lower until analysis.
(§2) For quantification of synephrine, 5 µL of standard solution or methanol was added to 100 µL plasma or urine samples followed by mixing. Ten microliters of erythromycin [internal standard (IS)] solution was added to the solutions followed by mixing and centrifugation (20,400 ×g, 5 min, 4°C). The supernatants were loaded onto an Ostro 96-well plate (Waters) and centrifuged (1500 ×g, 3 min, 4°C) followed by injection into the LC–MS/MS.
(§3) For quantification of 30 ingredients other than atractylodin and synephrine, 25 µL of standard solution or methanol was added to 500 µL plasma or urine samples followed by mixing. Atractylenolide III or digoxin (IS) solution (50 μL) was added to the solutions followed by mixing. For urine, 400 µL of blank plasma was added to the solutions. Ammonium acetate solution (100 mM, 100 or 400 µL) was added to the solutions followed by mixing. For enzymatic treatment, plasma and urine samples were incubated with β-glucuronidase (100 units in 100 mM ammonium acetate) for 2 h at 37°C. A solid-phase cartridge (OASIS HLB, 30 mg/1cc, Waters) was conditioned with methanol and 10 mM ammonium acetate solution, and the samples were loaded onto the cartridge. The cartridge was washed water : methanol (9:1, v/v), and 1.5 mL of methanol and 30 µL of propylene glycol were added to the cartridge to elute the analytes. The mixtures were dried at 25°C under a stream of nitrogen gas. Furthermore, 100 μL of 10 mM ammonium acetate : methanol (8:2, v/v) was added to the dried samples followed by mixing and sonication. The solutions were filtered (0.22 µm) and followed by injection into the LC–MS/MS system. […] Those analytical conditions are summarized in S2 Table and S3 Table.

Data set [8] can be described thus: Exploratory trial: amount of rikkunshito ingredients in urine. The class given is in vivo, human. The protocol:
as §1, §2, §3

Data set [9] can be described thus: Stability of ingredients in gastric pH solution (pH 1.2, 37°C). The class given is physicochemical. Particulars: pH 1.2. As to the method:
Rikkunshito gradually dissolved in acidic solution (pH 1.2) at 37°C, and the concentration of atractylodin after adding 0.25, 0.5, 1, and 2 h was measured by gas chromatography–mass spectrometry.

For data set [10] the following is noted: of the ingredient in the formulation; summary table, reference not given; cited from earlier work.
Data set [11] in a line: Formation of ingredients derived from rikkunshito in formulation, blood, and urine (S11 Table summary). As to conditions: after rikkunshito administration, per ingredient in the formulation; for Formation of ingredients: form found in Urine: BQL = below the quantification limit.

The structures appear in SMILES notation.

Take `O=C1C[C@@H](c2ccc(O)cc2)Oc2cc(O)ccc21` [Liquiritigenin]: in [1], the Tmax (commonly the time from dosing to the highest level) is more than 3 h. Besides, the results for the “Stability in blood, RR” value in data set [2] (at room temperature for 2 h) and in data set [2] (on ice for 2 h) were 82.0% and 91.6%, respectively. In addition, the “Long-term stability, RR” value in data set [3] (freezer (−30°C to −10°C) for 22 days) stood at 92.5%; in [3] (freezer (−30°C to −10°C) for 31 days), 87.4%; in data set [3] (freezer (−30°C to −10°C) for 220 days), 87.9%. Moreover, the “Freeze-thaw stability, RR” value in [4] worked out at 92.5%. For the same molecule, the “Post-preparative stability, RR” value in [5] (4 pg/mL, autosampler set at 4°C for 25 h) came out at 89.2%; in data set [5] (4 pg/mL, autosampler set at 4°C for 48 h), 94.1%; in data set [5] (160 pg/mL, autosampler set at 4°C for 25 h) it was 99.3%; in data set [5] (160 pg/mL, autosampler set at 4°C for 48 h), 103.4%. The “Stock solution stability, RR” value in data set [6] (refrigerator (1°C to 8°C) for 54 days) is listed as 54 days: 99.6%; in data set [6] (refrigerator (1°C to 8°C) for 129 days) it was 129 days: 103.5%.
For the molecule `O=C1C[C@@H](c2ccc(O[C@@H]3O[C@H](CO)[C@@H](O)[C@H](O)[C@H]3O)cc2)Oc2cc(O)ccc21` [Liquiritin], in [7] (0 h (preadministration), single oral rikkunshito 7.5 g), the “Plasma concentration, 0 h” value is “BQL”. Further, in data set [7] (0.5 h after single oral rikkunshito 7.5 g), the “Plasma concentration, 0.5 h” value is 1.02 ± 0.131 ng/mL. The “Plasma concentration, 1 h” value in [7] (1 h after single oral rikkunshito 7.5 g) was found to be 0.841 ± 0.0943 ng/mL. In addition, the “Plasma concentration, 2 h” value in data set [7] (2 h after single oral rikkunshito 7.5 g) was found to be 0.403 ± 0.0913 ng/mL. Moreover, the “Plasma concentration, 4 h” value in data set [7] (4 h after single oral rikkunshito 7.5 g) was found to be 0.114 ± 0.0392 ng/mL. Moreover, in data set [7] (8 h after single oral rikkunshito 7.5 g), the “Plasma concentration, 8 h” value is “BQL”. Further, the “Amount in urine, Pre” value in data set [8] (human, in vivo) is 15.7 ± 19.0 ng. In addition, the “Amount in urine, 4–8 h” value in data set [8] (human, in vivo, po) was 1900 ± 945 ng. The “Stability in gastric pH solution, Quantitative value” in [9] (0.5 h) was found to be 1670 ng/mL; in [9] (1 h), 1830 ng/mL; in data set [9] (2 h), 1720 ng/mL. The Metabolite by enterobacterium result in [10] is “Liquiritigenin^b”. Moreover, in data set [11], the “Formation of ingredients: form found in Blood” value (“Formation … in Blood” below) was “Liquiritin Liquiritigenin^c”. Moreover, the “Formation of ingredients: form found in Urine” value (“Formation … in Urine” below) in data set [11] was “Liquiritin Liquiritigenin^c”.
Take `C[C@@H]1O[C@@H](OC[C@H]2O[C@@H](Oc3cc(O)c4c(c3)O[C@H](c3ccc(O)cc3)CC4=O)[C@H](O)[C@@H](O)[C@@H]2O)[C@H](O)[C@H](O)[C@H]1O` [Narirutin]: in [8] (0–4 h after single oral rikkunshito 7.5 g, mean ± S.D., n = 4), the “Amount in urine, 0–4 h” value is reported as “BQL”. In addition, the “Amount in urine, 4–8 h” value in data set [8] (4–8 h after single oral rikkunshito 7.5 g, mean ± S.D., n = 4) was “BQL”. Besides, the “Amount in urine, Pre” value in data set [8] (preadministration (between dinner and bedtime), mean ± S.D., n = 4) turned out to be 9.26 ± 18.5 ng. Besides, the “Stability in gastric pH solution, Quantitative value” in data set [9] (0.5 h) is 1630 ng/mL; in [9] (1 h) it was 1700 ng/mL; in data set [9] (2 h), 1690 ng/mL. Moreover, the Metabolite by enterobacterium result in data set [10] is on record as “Naringenin”. In data set [11], the “Formation … in Blood” value was “Naringenin Conjugate metabolites of naringenin^a”. Besides, in data set [11], the “Formation … in Urine” value is recorded as “Naringenin”.
With `CC1(C)[C@@H](O[C@H]2O[C@H](C(=O)O)[C@@H](O)[C@H](O)[C@H]2O[C@@H]2O[C@H](C(=O)O)[C@@H](O)[C@H](O)[C@H]2O)CC[C@]2(C)[C@H]3C(=O)C=C4[C@@H]5C[C@@](C)(C(=O)O)CC[C@]5(C)CC[C@@]4(C)[C@]3(C)CC[C@@H]12` [glycyrrhizic acid], in data set [11], the “Formation … in Blood” value was 18β-Glycyrrhetinic acid Glycyrrhetinic acid 3-O-glucuronide and the “Formation … in Urine” value is recorded as 18β-Glycyrrhetinic acid Glycyrrhetinic acid 3-O-glucuronide.
Regarding `O=C(/C=C/c1ccc(O[C@@H]2O[C@H](CO)[C@@H](O)[C@H](O)[C@H]2O)cc1)c1ccc(O)cc1O` [isoliquiritin], the Metabolite by enterobacterium result in data set [10] was “Isoliquiritigenin”. Further, in data set [11], the “Formation … in Blood” value was “Isoliquiritigenin Conjugate metabolites of isoliquiritigenin” and the “Formation … in Urine” value is reported as “Isoliquiritigenin Conjugate metabolites of isoliquiritigenin”.

The values above are taken from publication PMC4506051, “Pharmacokinetic Profiles of Active Ingredients and Its Metabolites Derived from Rikkunshito, a Ghrelin Enhancer, in Healthy Japanese Volunteers: A Cross-Over, Randomized Study” (PLoS ONE, 2015).
